Reference: patent US20200397853A1, “TREATMENT OF A HEART DISEASE” (Yeda Research and Development Co. Ltd., priority 2018, published 2020)

Legend:
Format in all cases: in vivo, mice
[1] = tested on: mouse model of MI by LAD ligation; assay: Echocardiography of heart function after myocardial infarction (LAD ligation)
Protocol: (§1) Myocardial infarction in adult mice was performed as follows: mice were sedated with isoflurane (Abbott Laboratories) and following tracheal intubation, were artificially ventilated. Lateral thoracotomy at the third intercostal space was performed by blunt dissection of the intercostal muscles following skin incision. Following ligation of the left anterior descending coronary artery, 2 mg/animal/day of
(§2) GA (batch #164F0105; 24992916) or PBS were injected according to the experimental protocol (described in the Results). Following treatment, thoracic wall incisions were sutured with 6.0 non-absorbable silk sutures, and the skin wound closed using a skin adhesive. Mice were then warmed for several minutes until recovery.
Heart function was evaluated by transthoracic echocardiography performed on sedated mice (isoflurane, Abbott Laboratories) using a Vevo 3100 VisualSonics device.
Mice were divided to the following experimental groups: […]
4. Long GA treatment—performing MI followed by GA (2 mg/animal/day) given i.p. from day 0 up to day 14 or until first animal dies. N=5.
Echo measurements were performed at baseline (day 0), day 2, day 14 and day 35 post MI. Histology analysis was performed post mortem.
Short GA treatment—performing MI followed by GA (2 mg/animal/day) administered i.p. from day 0 up to day 14. N=10. […]
In the clinic, MI patients currently reach medical care in a matter of several hours. To find out the relevance and efficacy of delayed administration of GA, the present inventors created MI by LAD ligation and treated animals at the day of injury, 24 or 48 hours post MI.

[2] = tested on: mouse model of MI by LAD ligation; assay: Heart section scar assessment (Masson-Trichrome) after MI
Protocol: as §1, §2
Mouse heart tissues were fixed in 4% paraformaldehyde (PFA) and sectioned. For analysis of cardiac regeneration, following myocardial infarction procedure, paraffin sections were cut through the entire ventricle from apex to base into serial sections with intervals of 0.3 mm. Paraffin sections were cut frontally to include base to apex in each section. […] Scar size was quantified in the section containing the papillary muscle region using ImageJ software based on Masson's trichrome staining. Scar size was calculated as scar size relative to total section size.

[3] = tested on: infarcted hearts; assay: FACS analysis of neutrophils and macrophages in infarcted hearts
Protocol: Myocardial infarction in adult mice was performed as follows: mice were sedated with isoflurane (Abbott Laboratories) and following tracheal intubation, were artificially ventilated. Lateral thoracotomy at the third intercostal space was performed by blunt dissection of the intercostal muscles following skin incision. Following ligation of the left anterior descending coronary artery, 2 mg/animal/day of GA (batch #164F0105; 24992916) or PBS were injected according to the experimental protocol (described in the Results). Following treatment, thoracic wall incisions were sutured with 6.0 non-absorbable silk sutures, and the skin wound closed using a skin adhesive. Mice were then warmed for several minutes until recovery. Single cell suspensions of hearts harvested at different time point post MI were generated immediately before analysis by flow cytometry, as previously described^21. Briefly, single hearts were minced and digested in collagenase II/Dispase solution in PBS with 1 mM CaCl2 (2 mg/ml collagenase II, 1.2 U/ml Dispase) for 3 rounds of 15 minutes at 37° C., followed by mechanical separation by pippetation. Digested samples were passed through a 40-μm filter, washed, and suspended in FACS buffer (PBS 0.5% BSA, 2 mM EDTA) for staining. Samples were stained with antibodies from Miltenyi biotec:CD45-Viogreen, CD11b-PE, Ly6G-Vioblue, Ly6C-FITC, F4/80-APC, CCR2-APC-Vio770, MHCII-PE-Vio770. 7-AAD was used as a viability marker. Staining and sample analysis were all performed by standard procedure on a LSR-II FACS machine. GA has an established influence on the immune response, especially the T-helper 2 (Th2) lymphocyte population^22-24. To investigate the molecular mechanisms of GA effects, the present inventors sought out to characterize the immune response of infarcted hearts after GA treatment. First, examining the changes in relevant immune populations. For that, infarcted hearts were analyzed by FACS using markers for neutrophils and macrophages. To follow the dynamics of the immune response after MI, injured hearts at 24 hr, 96 hr and 14 days post MI were harvested. […] The effect of GA diminishes after 96 hr, with the expected reduction in neutrophils. […] This trend was recently shown to promote cardiac regeneration^25, and therefore might explain GA regenerative effect.

[4] = tested on: infarcted hearts; assay: Multiplex cytokine ELISA of infarcted hearts
Protocol: Myocardial infarction in adult mice was performed as follows: mice were sedated with isoflurane (Abbott Laboratories) and following tracheal intubation, were artificially ventilated. Lateral thoracotomy at the third intercostal space was performed by blunt dissection of the intercostal muscles following skin incision. Following ligation of the left anterior descending coronary artery, 2 mg/animal/day of GA (batch #164F0105; 24992916) or PBS were injected according to the experimental protocol (described in the Results). Following treatment, thoracic wall incisions were sutured with 6.0 non-absorbable silk sutures, and the skin wound closed using a skin adhesive. Mice were then warmed for several minutes until recovery. For native protein extraction, hearts were minced using a mortar and pestle under liquid nitrogen, and the resulting powder was further homogenized using rotor—stator homogenizer with a native extraction buffer (0.5% triton in PBS with protease inhibitor cocktail). Resulting extracts were equilibrated for protein concentration, and subjected to mouse cytokine 16-plex ELISA (#110949MS, Quansys Biosciences, USA) according to manufacturer instructions. To broaden the understanding of the molecular effectors influenced by GA treatment, the cytokine milieu of the GA treated infarcted hearts was analyzed. For that, infarcted hearts were harvested at 24 h, 96 h and 14 days post MI. Native protein lysates were prepared and subjected to multiplex cytokine ELISA. At 24 hr post MI, both IL-6 and IL-10 levels were increased (FIG. 6A). […] Importantly, the levels of IL-6 as well as those of other pro-inflammatory cytokines in GA treated hearts were reduced 14 days post MI (FIG. 6C). These findings might underscore the importance of regulating a transient expression of pro-inflammatory cytokines occurring in a pro-regenerative scenario, similar to what was detected in the GA treated hearts. Another cytokine that was elevated after GA treatment was IL-4 (FIG. 6B). Both IL-10 and IL-4 are considered as anti-inflammatory cytokines that induce Th-2 differentiation, a cell population previously shown to be affected by GA (40-42). […] This chemokine was previously shown to induce IL-6 expression and to have beneficial effect on cardiac remodeling post MI^29. […] Taken together, the differential expression of cytokines in the GA treated infarcted heart might reveal the molecular mechanism that allows GA to modulate the immune response, supporting cardiac regeneration post MI.

[5] = tested on: Stat3; assay: Western-blot analysis of pStat3 in hearts post MI; settings: 4 days after injury (FIG. 7)
Protocol: as §1, §2
Western blotting was performed with the SDS-PAGE Electrophoresis System. Sample extracts were prepared and transferred to PVDF membranes. The following primary antibodies were used: anti-Gapdh (Sigma, PLA0125, 1:3000), anti-pStat3 (1:1000) Horseradish peroxidase anti-mouse, anti-rabbit or anti-goat (Sigma-Aldrich, 1:2000) were used as a secondary antibody.

glatiramer acetate [GA]
fractional shortening (FS), reduction from baseline ([1]; 35 d after MI, GA i.p. 14 d vs PBS (FIG. 1C)): smaller reduction
cardiac function (EF and FS) ([1]; 35 days after MI, larger group, all animals treated by the protocol, vs PBS (FIGS. 2A, B)): improved significantly
EF of the 3 representative treated mice ([1]; 35 d post MI, vs PBS (FIG. 3B)): improved EF
Ejection Fraction (EF) ([1]; 35 d post injury, GA 2 mg/animal/day i.p. day 0 to 14, vs PBS (FIG. 1A)): clear beneficial effect
cardiac function (EF, FS), treatment delayed 24 hours ([1]; treatment started 24 hours post MI, similar levels to treatment at the day of injury (FIGS. 4A-B)): improved cardiac function
cardiac function (EF, FS), treatment delayed 48 hours ([1]; treatment started 48 hours post MI, similar levels to treatment at the day of injury (FIGS. 4A-B)): improved cardiac function
cardiac scarring (Masson-Trichrome stained area relative to total area) ([2]; 35 days after MI, larger group, vs PBS (FIG. 2C)): improved significantly
scar area of the 3 representative treated mice ([2]; 35 d post MI, Masson-Trichrome, vs PBS (FIG. 3A)): smaller scar area
fraction of neutrophils in the infarcted hearts ([3]; 24 h post MI, vs PBS (FIGS. 5A, B)): decreased
macrophage fraction of immune cells ([3]; 24 hr post MI, vs PBS (FIGS. 5C, D)): increase
effect on macrophage fraction ([3]; after 96 hr post MI): diminished
effect on neutrophils ([3]; after 96 hr post MI): diminishes
IL-6 level ([4]; 24 hr post MI (FIG. 6A)): increased
IL-10 level ([4]; 24 hr post MI (FIG. 6A)): increased
levels of Monocyte Chemoattractant Protein-1 (MCP-1) ([4]; 96 hr post MI (FIG. 6B)): significant enhancement
IL-6 level ([4]; 14 days post MI (FIG. 6C)): reduced
levels of other pro-inflammatory cytokines ([4]; 14 days post MI (FIG. 6C)): reduced
IL-4 level ([4]; FIG. 6B): elevated
levels of phosphorylated Stat3 (pStat3) [5]: increased levels
levels of phosphorylated Stat3 (pStat3) ([5]; listed as Cop): upregulation
